The values that follow come from patent US10398142B2, “Polycationic amphiphiles as antimicrobial agents” (priority 2013, dated 2019).

Test in all cases: Minimum inhibitory concentration (MIC), broth microdilution
Assay type in all cases: cell-based
Background: In broth dilution the organism is exposed to a series of concentrations in liquid medium.

Experiment [1] has as its system Enterococcus faecalis (OG1RF). Conditions: Table 3; read-out: MIC E. faecalis. How it is done:
(§1) The term “minimum inhibitory concentration (MIC)” means the lowest concentration of an antimicrobial agent that will inhibit the visible growth of a microorganism after overnight incubation. MIC values against bacteria, for example, the Gram-positive Staphylococcus aureus and Enterococcus faecalis and the Gram-negative Escherichia coli and Pseudomonas aeruginosa were determined by standard methods.
(§2) With nearly three-dozen amphiphiles varying in structure and cationic nature synthesized, minimum inhibitory concentration (MIC) values against the Gram-positive Staphylococcus aureus and Enterococcus faecalis and the Gram-negative Escherichia coli and Pseudomonas aeruginosa were determined by standard methods. […] The commercially available antibacterial agent benzalkonium chloride (benzyldimethyldodecylammonium chloride, Bn,12) was tested for comparison. The broth microdilution for determining MIC values was performed as previously reported.
(§3) Different biological assays were performed. […] All cultures, with the exception of E. faecalis, were grown with shaking at 250 rpm.
(§4) Minimum inhibitory concentration (MIC) values against bacteria were measured using standard method. Compounds were serially diluted two-fold from an aqueous stock solution to yield twelve test concentrations. Overnight S. aureus, E. faecalis, E. coli, P. aeruginosa, CA-MRSA, and HA-MRSA cultures diluted to ca. 10^6 cfu/mL in Mueller-Hinton media and 100 μL were inoculated into each well of a U-bottom 96-well plate (BD Biosciences, BD351177) containing 100 μL of compound solution. Plates were incubated statically at 37° C. for 72 hours upon which time wells were evaluated visually for bacterial growth. The MIC was determined as the lowest concentration of compound resulting in no bacterial growth visible to the naked eye, based on the majority of three independent experiments. Positive and negative aqueous and media controls were conducted for each trial.

The subject of experiment [2] is Escherichia coli (MC4100). Conditions: Table 3; read-out: MIC E. coli. The method, then: as §1, §2, §3, §4
Experiment [3] concerns Pseudomonas aeruginosa (PAO1). The settings on record: Table 3; read-out: MIC P. aeruginosa. How it is done: as §1, §2, §3, §4
In experiment [4] the test system is Staphylococcus aureus MSSA (SH1000). Conditions: Table 3; read-out: MIC S. aureus. The method, then:
as §1, §2, §3, §4

Each structure is given as a SMILES string.

Consider `CCCCCCCCCCCCCC[N+](C)(C)CCN(C)CCN(C)CC[N+](C)(C)CCCCCCCCCCCCCC.[Br-].[Br-]` [N4-14,0,0, 14], for which the MIC – broadly, the lowest concentration that inhibits growth of the organism – in experiment [1] is recorded as 1 µM; in experiment [2], 2 µM; in experiment [3], 16 µM; in experiment [4] it was 2 µM.
On to `CCCCCCCCCCCCCC[N+](C)(C)CCN(C)CCN(C)CCN(C)C.[Br-]` [N4-14,0,0, 0], for which the MIC came to 16 µM in experiment [1], 32 µM in experiment [2], 125 µM in experiment [3] and 16 µM in experiment [4].
In the case of `C=CC[N+](C)(CC[N+](C)(C)CCCCCCCCCCCCCC)CC[N+](C)(C)CCCCCCCCCCCCCC.[Br-].[Br-].[Br-]` [14, 2, 3A, 2, 14], the MIC is 2 µM in experiment [1], 2 µM in experiment [2], 8 µM in experiment [3] and 2 µM in experiment [4].
As for `CCCCCCCCCCC[N+](C)(C)CC[N+](C)(C)CC[N+](C)(C)CCCCCCCCCCC.[Br-].[Br-].[I-]` [11, 2, 1, 2, 11], the MIC is on record as 2 µM in experiment [1], 4 µM in experiment [2], 8 µM in experiment [3] and 2 µM in experiment [4].
For the molecule `CCCCCCCCCCCCCCCC[N+](C)(C)CCN(C)CC[N+](C)(C)CCCCCCCCCCCCCCCC.[Br-].[Br-]` [16, 2, 0, 2, 16], the minimal inhibitory concentration (MIC) in experiment [1] was found to be 2 µM; in experiment [2] it was 16 µM; in experiment [3], 32 µM; in experiment [4], 4 µM.
The matching figures for `CCCCCCCCCC[N+](C)(C)CCCCC[N+](C)(C)CCCCCCCCCC.[Br-].[Br-]` [10, 5, 10]: 4 µM, 8 µM, 63 µM and 2 µM.
On the same counts, the results for `C=CC[N+](C)(CC[N+](C)(C)CCCCCCCCCCCCCCCC)CC[N+](C)(C)CCCCCCCCCCCCCCCC.[Br-].[Br-].[Br-]` [16, 2, 3A, 2, 16] are 4 µM, 8 µM, 16 µM and 4 µM.
The matching figures for `C=CC[N+](C)(CC[N+](C)(C)CCCCCCCCCC)CC[N+](C)(C)CCCCCCCCCC.[Br-].[Br-].[Br-]` [10, 2, 3A, 2, 10]: 4 µM, 2 µM, 63 µM and 2 µM.
As to `CCCCCCCCCCCC[N+](C)(C)CCN(C)CCN(C)CCN(C)C.[Br-]` [N4-12,0,0, 0], the MIC was determined as 8 µM in experiment [1], 8 µM in experiment [2], 32 µM in experiment [3] and 8 µM in experiment [4].
As to `CCCCCCCCCCC[N+](C)(C)CCN(C)CC[N+](C)(C)CCCCCCCCCCC.[Br-].[Br-]` [11, 2, 0, 2, 11], the MIC in experiment [1] was 2 µM; in experiment [2], 2 µM; in experiment [3], 8 µM; in experiment [4] it was 2 µM.
Turning to `CCCCCCCCCCCCCC[N+](C)(C)CCCCC[N+](C)(C)CCCCCCCCCCCCCC.[Br-].[Br-]` [14, 5, 14], the MIC in experiment [1] is on record as 1 µM; in experiment [2], 4 µM; in experiment [3], 16 µM; in experiment [4], 1 µM.
As to `C=CC[N+](C)(CC[N+](C)(C)CCCCCCCCCCC)CC[N+](C)(C)CCCCCCCCCCC.[Br-].[Br-].[Br-]` [11, 2, 3A, 2, 11], the minimal inhibitory concentration (MIC) in experiment [1] worked out at 2 µM; in experiment [2], 2 µM; in experiment [3], 16 µM; in experiment [4] it was 1 µM.
As for `CCCCCCCCCCCC[N+](C)(C)CCCCCCC[N+](C)(C)CCCCCCCCCCCC.[Br-].[Br-]` [12, 7, 12], the MIC in experiment [1] was determined as 1 µM; in experiment [2], 2 µM; in experiment [3], 8 µM; in experiment [4], 1 µM.
`CCCCCCCCCCCCCC[N+](C)(C)CC[N+](C)(C)CC[N+](C)(C)CCCCCCCCCCCCCC.[Br-].[Br-].[I-]` [14, 2, 1, 2, 14]: the MIC in experiment [1] was 1 µM; in experiment [2], 2 µM; in experiment [3], 8 µM; in experiment [4], 1 µM.
